Tests used:
[1] = target: Voltage-gated L-type calcium channel (Homo sapiens, UniProt Q13936+Q13698+Q01668+O60840); assay: Calcium channel antagonistic activity relative to 2,6-Dimethyl-4-(2-nitro-phenyl)-1,4-dihydro-pyridine-3,5-dicarboxylic acid dimethyl ester(=100); type: functional, Cavia porcellus; conditions: guinea pig
Cavia porcellus = organism: Cavia porcellus; assay: Inhibition of muscarinic receptor mediated [Ca2+] dependent contraction of guinea pig ileal longitudinal smooth muscle; type: functional

SMILES	Relative activity [1]	ID50 (Cavia porcellus) [nM]
COC(=O)C1=C(C)N=C(C)/C(=C(\O)OC)C1c1cccc(C)c1 (configuration not stated)	4.6	110
COC(=O)C1=C(C)N=C(C)/C(=C(\O)OC)C1c1c(F)c(F)c(F)c(F)c1F (configuration not stated)		0.9
COC(=O)C1=C(C)N=C(C)/C(=C(\O)OC)C1c1cccc(C#N)c1 (configuration not stated)	1.7	300
COC(=O)C1=C(C)N=C(C)/C(=C(\O)OC)C1c1ccc(C)cc1 (configuration not stated)	< 0.05	50000
COC(=O)C1=C(C)N=C(C)/C(=C(\O)OC)C1c1ccc([N+](=O)[O-])cc1[N+](=O)[O-] (configuration not stated)	< 0.05	>50000
COC(=O)C1=C(C)NC(C)=C(C(=O)OC)C1c1ccccc1[N+](=O)[O-] [NIFEDIPINE]	100	5.1

Further lines, with some results ahead:

Relative activity [1]	SMILES	ID50 (Cavia porcellus) [nM]
~ 18	CCOC(=O)C1=C(C)NC(C)=C(C(=O)OCC)C1c1ccccc1	30
0.005	COC(=O)C1=C(C)NC(C)=C(C(=O)OC)C1c1ccc(N(C)C)cc1	50000
18	COC(=O)C1=C(C)NC(C)=C(C(=O)OC)C1c1ccccc1	28

From ChEMBL document CHEMBL1122002, “Crystal structures and pharmacological activity of calcium channel antagonists: 2,6-dimethyl-3,5-dicarbomethoxy-4-(unsubstituted, 2-methyl-, 4-methyl-, 3-nitro-, 4-nitro-, and 2,4-dinitrophenyl)-1,4-dihydropyridine” (J Med Chem, 1982)
